Measured values taken from paper PMC4742234, “Screening of Drug Metabolizing Enzymes for the Ginsenoside Compound K In Vitro: An Efficient Anti-Cancer Substance Originating from Panax Ginseng” (PLoS ONE, 2016).
“And” between values parts separate entries of the source, which are not always exact repeats. Identical values can stand only once. “Also recorded” adds a separate entry of the source.

Columns and labels:
[1] = test system: CYP1A2, CYP2A6, CYP2D6, CYP2E1, CYP2C19; assay: Effect of the other specific inhibitors on CK metabolism in HLMs; format: in vitro ADME, human; conditions: CK 50 μM, furafylline, tranylcypromine, quinidine, ticlopidine 1 μM, chlormethiazole 5 μM
Experimental: (§1) The method was conducted according to our previous study with some modifications. The CYP isoform-specific probe reactions used were phenacetin O-deethylation (for CYP1A2), coumarin 7-hydroxylation (for CYP2A6), tolbutamide 4-hydroxylation (for CYP2C9), metoprolol α-hydroxylation (for CYP2D6), chlorzoxazone 6-hydroxylation (for CYP2E1),S-Mephenytoin 4-hydroxylation (for CYP2C19), and midazolam 1-hydroxylation (for CYP3A4). The kinetic study of CK was conducted with HLMs. A 0.2 mL incubation mixture that consisted of CK (as a substrate), the HLMs (0.5 mg/mL) or CYP isoforms (10 pmol), and 0.1 M sodium phosphate buffer (pH 7.4) was pre-warmed for 5 min at 37°C. The reaction was initiated by the addition of 1 mg/mL triphosphopyridine nucleotide (NADPH). […]
(§2) To screen the specific CYP isoform responsible for the CK metabolism, we determined the inhibitory effect of specific inhibitors on the metabolism of CK in the HLMs as described in detail previously. […] The inhibitory effects of the above specific inhibitors on the metabolic clearance rate of CK were evaluated separately to screen the CYP isoforms responsible for the CK metabolism. The relative activity of the CYP isoforms was calculated by dividing the peak area of CK when incubated with the inhibitor by that of CK from the negative controls. […]

CYP2A6 = target: T1, CYP2A6 (Homo sapiens, UniProt P11509); assay: Inhibition of CYP2A6 (coumarin 7-hydroxylation) by CK in HLMs; format: in vitro ADME
T1 construct: tissue Cypex Ltd. (U.K.); host or cells: pooled human liver microsomes
T1 sequence (P11509 1-494): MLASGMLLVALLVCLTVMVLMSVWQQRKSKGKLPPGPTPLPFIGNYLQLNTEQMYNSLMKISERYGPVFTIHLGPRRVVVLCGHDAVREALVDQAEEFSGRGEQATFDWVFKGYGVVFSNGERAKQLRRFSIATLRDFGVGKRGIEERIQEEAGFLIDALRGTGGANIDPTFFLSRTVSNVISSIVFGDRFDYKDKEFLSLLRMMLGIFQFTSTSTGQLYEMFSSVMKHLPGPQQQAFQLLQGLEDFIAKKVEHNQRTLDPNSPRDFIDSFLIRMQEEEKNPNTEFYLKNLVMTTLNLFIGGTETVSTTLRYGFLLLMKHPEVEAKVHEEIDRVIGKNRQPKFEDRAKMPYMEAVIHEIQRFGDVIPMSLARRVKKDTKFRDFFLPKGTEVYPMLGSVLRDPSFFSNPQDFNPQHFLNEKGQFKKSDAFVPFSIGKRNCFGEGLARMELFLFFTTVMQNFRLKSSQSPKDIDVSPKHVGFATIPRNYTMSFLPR
Experimental: The method was conducted according to our previous study with some modifications. The CYP isoform-specific probe reactions used were phenacetin O-deethylation (for CYP1A2), coumarin 7-hydroxylation (for CYP2A6), tolbutamide 4-hydroxylation (for CYP2C9), metoprolol α-hydroxylation (for CYP2D6), chlorzoxazone 6-hydroxylation (for CYP2E1),S-Mephenytoin 4-hydroxylation (for CYP2C19), and midazolam 1-hydroxylation (for CYP3A4). The kinetic study of CK was conducted with HLMs. A 0.2 mL incubation mixture that consisted of CK (as a substrate), the HLMs (0.5 mg/mL) or CYP isoforms (10 pmol), and 0.1 M sodium phosphate buffer (pH 7.4) was pre-warmed for 5 min at 37°C. The reaction was initiated by the addition of 1 mg/mL triphosphopyridine nucleotide (NADPH). All the reagents were dissolved in methanol, and the final solvent concentration in all incubations (including the controls) was 1%. The final incubations were performed in a shaking water bath (37°C) for 30 min. The reactions were stopped by adding 0.2 mL ice-cold acetonitrile, which contains irbesartan (114.9 ng/mL) as the internal standard. The samples were vortexed for 5 min. After centrifugation (12000×g for 10 min), the supernatants were transferred, and aliquots of 20 μL were injected into the HPLC-MS/MS system for analysis.
CK (10–100 μM) and a single CYP isoform-specific substrate (with a concentration similar to its corresponding Kmvalue) were used to determine the inhibitory effect of CK on specific CYP isoforms as described in detail previously. Substrates including phenacetin, coumarin, tolbutamide, metoprolol, chlorzoxazone, S-Mephenytoin, and midazolam were used at concentrations of 10, 5, 100, 7.5, 40, 100, and 5 μM, respectively. All incubation conditions were the same as mentioned above. The inhibitory effects on the CYP isoforms were investigated individually by incubating the HLMs in the absence or presence of CK. […]

CYP3A4 = CYP3A4 (Homo sapiens, UniProt P08684); assay: Effect of specific inhibitor ketoconazole on CK metabolism in HLMs; format: in vitro ADME; parameters: tissue Cypex Ltd. (U.K.); host or cells: pooled human liver microsomes; conditions: CK 50 μM, in the presence of ketoconazole 1 μM
Experimental: as §1, §2

CYP3A4, sequence (P08684 whole entry): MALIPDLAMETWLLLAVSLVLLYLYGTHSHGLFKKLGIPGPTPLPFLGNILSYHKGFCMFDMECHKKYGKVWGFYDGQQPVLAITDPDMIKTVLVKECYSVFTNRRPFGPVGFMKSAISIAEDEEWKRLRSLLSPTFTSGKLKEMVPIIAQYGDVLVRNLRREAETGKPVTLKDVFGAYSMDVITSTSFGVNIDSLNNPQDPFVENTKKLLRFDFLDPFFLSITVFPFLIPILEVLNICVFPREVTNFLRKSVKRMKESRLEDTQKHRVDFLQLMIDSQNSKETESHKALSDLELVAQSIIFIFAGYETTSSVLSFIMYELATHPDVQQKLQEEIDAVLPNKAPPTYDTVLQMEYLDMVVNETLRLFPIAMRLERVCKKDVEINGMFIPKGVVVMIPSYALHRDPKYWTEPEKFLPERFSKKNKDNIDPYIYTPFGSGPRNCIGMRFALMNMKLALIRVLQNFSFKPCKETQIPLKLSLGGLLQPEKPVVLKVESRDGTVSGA

CC(C)=CCC[C@](C)(OC1O[C@H](CO)[C@@H](O)[C@H](O)[C@H]1O)[C@H]1CC[C@]2(C)[C@@H]1[C@H](O)C[C@@H]1[C@@]3(C)CC[C@H](O)C(C)(C)[C@@H]3CC[C@]12C (stereo partly drawn) [CK, 20-O-β-(D-glucopyranosyl)-20(S)-protopanaxadiol]
effect of other specific inhibitors / CYP isoforms on CK metabolism [1]: minimal or no effect; also recorded: no obvious inhibitory effects; also recorded: no significant inhibitory effects | inhibitory effect on the activity of CYP2A6 (CYP2A6; HLMs, CK 10–100 μM): minimal; also recorded: negligible | IC50 (CYP2A6; HLMs, coumarin 5 μM, CK 10–100 μM): > 100 µM | inhibitor potency class for CYP2A6 (CYP2A6; classified by IC50 according to Kong et al): weak (weak, if IC50≥100 μg/mL or ≥50 μM) | metabolic clearance rate (MCR) of CK, of that of the control (CYP3A4): 74.6±28.1% and 74.6%
